Measurements from patent publication US20150291565A1, “INDOLE COMPOUNDS AND THEIR USE AS ANTIMICROBIALS” (Memorial Sloan-Kettering Cancer Center, priority 2012, published 2015).
≈ marks a conversion by molar mass, not a printed value. Like-named read-outs stand apart in the source and are kept apart here.

Legend:
MRSA = assay: Disk diffusion assay, zone of inhibition, MRSA; assay type: cell-based, Staphylococcus aureus; details: disk diffusion zone of inhibition
M. smegmatis (mc2155) = assay: Disk diffusion assay, zone of inhibition, M. smegmatis; assay type: cell-based; details: disk diffusion zone of inhibition
[1] = system: S. aureus ATCC 29213 (MSSA); assay: Broth dilution MIC, S. aureus ATCC 29213; assay type: cell-based; details: Staphylococcus aureus
[2] = system: S. aureus ATCC 33591 (MRSA); assay: Broth dilution MIC, S. aureus ATCC 33591; assay type: cell-based; details: for MIC: Staphylococcus aureus
S. aureus BAA-39 (MDR) = assay: Broth dilution MIC, S. aureus BAA-39; assay type: cell-based; details: for MIC: Staphylococcus aureus, BAA39
[3] = system: S. pneumoniae ATCC 6301 (PSSP); assay: Broth dilution MIC, S. pneumoniae ATCC 6301; assay type: cell-based; details: Streptococcus pneumoniae
[4] = system: S. pneumoniae ATCC 700674 (PRSP); assay: Broth dilution MIC, S. pneumoniae ATCC 700674; assay type: cell-based; details: Streptococcus pneumoniae
[5] = system: E. faecalis ATCC 29212 (VRE); assay: Broth dilution MIC, E. faecalis ATCC 29212; assay type: cell-based
[6] = system: E. faecium ATCC 700221 (VRE); assay: Broth dilution MIC, E. faecium ATCC 700221; assay type: cell-based
E. faecium CT-26 = assay: Broth dilution MIC, E. faecium CT-26; assay type: cell-based; details: Enterococcus faecium
E. coli ECM 1694 = assay: Broth dilution MIC, E. coli ECM 1694; assay type: cell-based; details: Escherichia coli
E. coli ATCC 25922 = assay: Broth dilution MIC, E. coli ATCC 25922; assay type: cell-based; details: Escherichia coli
K. pneumoniae ATCC 13883 = assay: Broth dilution MIC, K. pneumoniae ATCC 13883; assay type: cell-based; details: Klebsiella pneumoniae
K. pneumoniae ATCC 51503 = assay: Broth dilution MIC, K. pneumoniae ATCC 51503; assay type: cell-based; details: Klebsiella pneumoniae
P. aeruginosa ATCC 9027 = assay: Broth dilution MIC, P. aeruginosa ATCC 9027; assay type: cell-based; details: Pseudomonas aeruginosa
C. albicans ATCC 14053 = assay: Broth dilution MIC, C. albicans ATCC 14053; assay type: cell-based; details: Candida albicans, ATCC14053; Table 1; range 64 down to 0.12 μg/ml
Method: In vitro Anti-bacterial & Anti-fungal Activity Assay: All test compounds were prepared as 6.4 mg/ml stock solutions in DMSO and further diluted according to the NCCLS M7-A6 (Page 5) document with sterile water or appropriate diluent. A working stock of 256 μg/ml was used to do 1:2 serial dilutions in 96-well plates. […] The inoculums were prepared by making a direct sterile water suspension of isolated colonies from 18 to 24 hr agar plates for all organisms (Mueller Hinton, Blood Agar or SDA plates). Each bacterial suspension was adjusted to read between 0.09 and 0.11 absorbance at 620 nm. […] These were further diluted 1/100 in appropriate broth for inoculating the 96-well plates. The C. albicans suspension was adjusted to read between 70 and 75% Transmittance at 530 nm and then diluted 1/500 in RPMI+MOPS broth. All aerobic bacterial and fungal plates were incubated for 18 hrs. at 35° C. […] Plates were read using a Beckman Automated Plate Reader at 650 nm. Readings were confirmed by visual examination of plates. (See Table 1, Table 2, Table 3, and Table 4). […] It is important to note that positive results against C. albicans are often indicative of broad spectrum antifungal activity, while negative results are not necessarily conclusory of a lack of activity against other fungus.

[7] = Table 1, range 64 down to 0.12 μg/ml, read-out: MIC S. aureus ATCC 29213
[8] = Table 2, broth dilution MIC in ug/ml, read-out: MIC S aureus ATCC 29213 MSSA
[9] = Table 1, range 64 down to 0.12 μg/ml, read-out: MIC S. aureus ATCC 33591
[10] = Table 2, broth dilution MIC in ug/ml, read-out: MIC S aureus ATCC 33591 MRSA
[11] = Table 1, range 64 down to 0.12 μg/ml, read-out: MIC S. aureus BAA-39
[12] = Table 2, broth dilution MIC in ug/ml, read-out: MIC S aureus BAA-39 MDR
[13] = ATCC6301, Table 1, range 64 down to 0.12 μg/ml, read-out: MIC S. pneumoniae ATCC 6301
[14] = ATCC6301, Table 2, broth dilution MIC in ug/ml, read-out: MIC S pneumonia ATCC 6301 PSSP
[15] = Table 1, range 64 down to 0.12 μg/ml, read-out: MIC S. pneumoniae ATCC 700674
[16] = Table 2, broth dilution MIC in ug/ml, read-out: MIC S pneumonia ATCC 700674 PRSP
[17] = Table 2, broth dilution MIC in ug/ml, read-out: MIC E faecalis ATCC 29212 VRE
[18] = Enterococcus faecium, Table 1, range 64 down to 0.12 μg/ml, read-out: MIC E. faecium ATCC 700221
[19] = Table 2, broth dilution MIC in ug/ml, read-out: MIC E faecium ATCC 700221 VRE
[20] = CT26, Table 1, range 64 down to 0.12 μg/ml, read-out: MIC E. faecium CT-26
[21] = CT26, Table 2, broth dilution MIC in ug/ml, read-out: MIC E faecium CT-25
[22] = ECM1694, Table 1, range 64 down to 0.12 μg/ml, read-out: MIC E. coli ECM 1694
[23] = ECM1694, Table 2, broth dilution MIC in ug/ml, read-out: MIC E. coli ECM 1693
[24] = ATCC 25921 / ATCC 25922, Table 2, broth dilution MIC in ug/ml, read-out: MIC E. coli ATCC 25921
[25] = ATCC25922, Table 1, range 64 down to 0.12 μg/ml, read-out: MIC E. coli ATCC 25922
[26] = ATCC13883, Table 1, range 64 down to 0.12 μg/ml, read-out: MIC K. pneumoniae ATCC 13883
[27] = ATCC13883, Table 2, broth dilution MIC in ug/ml, read-out: MIC K pneumonia ATCC 13883
[28] = ATCC51503, Table 1, range 64 down to 0.12 μg/ml, read-out: MIC K. pneumoniae ATCC 51503
[29] = ATCC51503, Table 2, broth dilution MIC in ug/ml, read-out: MIC K pneumonia ATCC 51503
[30] = ATCC 9026 / ATCC 9027, Table 2, broth dilution MIC in ug/ml, read-out: MIC P aeruginosa ATCC 9026
[31] = ATCC9027, Table 1, range 64 down to 0.12 μg/ml, read-out: MIC P. aeruginosa ATCC 9027

MIC [1, 7] [µg/mL] | MIC [1, 8] [µg/mL] | MIC [2, 9] [µg/mL] | MIC [2, 10] [µg/mL] | MIC (S. aureus BAA-39 (MDR); [11]) [µg/mL] | MIC (S. aureus BAA-39 (MDR); [12]) [µg/mL] | MIC [3, 13] [µg/mL] | MIC [3, 14] [µg/mL] | MIC [4, 15] [µg/mL] | MIC [4, 16] [µg/mL] | MIC [5, 17] [µg/mL] | MIC [6, 18] [µg/mL] | MIC [6, 19] [µg/mL] | MIC (E. faecium CT-26; [20]) [µg/mL] | MIC (E. faecium CT-26; [21]) [µg/mL] | MIC (E. coli ECM 1694; [22]) [µg/mL] | MIC (E. coli ECM 1694; [23]) [µg/mL] | MIC (E. coli ATCC 25922; [24]) [µg/mL] | SMILES | Zone Size MRSA (MRSA) [mm] | Zone Size M. smegmatis (M. smegmatis (mc2155)) [mm] | other results
8 (≈ 22.7 µM) | 8 (≈ 22.7 µM) | 4 (≈ 11.3 µM) | 4 (≈ 11.3 µM) | 4 (≈ 11.3 µM) | 4 (≈ 11.3 µM) | 2 (≈ 5.67 µM) | 2 (≈ 5.67 µM) | 4 (≈ 11.3 µM) | 4 (≈ 11.3 µM) | 2 (≈ 5.67 µM) | 2 (≈ 5.67 µM) | 2 (≈ 5.67 µM) | 2 (≈ 5.67 µM) | 2 (≈ 5.67 µM) | 2 (≈ 5.67 µM) | 2 (≈ 5.67 µM) | 16 (≈ 45.4 µM) | c1ccc(Nc2ccc(-c3cc4ccc(C5=NCCN5)cc4[nH]3)cc2)cc1 [SKI-2] | 10 | 14.3 | MIC ([5]; Enterococcus faecalis, Table 1, range 64 down to 0.12 μg/ml, read-out: MIC E. faecalis ATCC 29212): 2 µg/mL (≈ 5.67 µM); MIC (E. coli ATCC 25922; [25]): 16 µg/mL (≈ 45.4 µM); MIC (K. pneumoniae ATCC 13883; [26]): 32 µg/mL (≈ 90.8 µM); MIC (K. pneumoniae ATCC 13883; [27]): 32 µg/mL (≈ 90.8 µM); MIC (K. pneumoniae ATCC 51503; [28]): 64 µg/mL (≈ 182 µM); MIC (K. pneumoniae ATCC 51503; [29]): 64 µg/mL (≈ 182 µM); MIC (P. aeruginosa ATCC 9027; [30]): 64 µg/mL (≈ 182 µM); MIC (P. aeruginosa ATCC 9027; [31]): 64 µg/mL (≈ 182 µM); MIC (C. albicans ATCC 14053): 16 µg/mL (≈ 45.4 µM)
1 (≈ 2.33 µM) | 1 (≈ 2.33 µM) | 1 (≈ 2.33 µM) | 1 (≈ 2.33 µM) | 1 (≈ 2.33 µM) | 1 (≈ 2.33 µM) | ≤ 0.12 | 0.12 (≈ 0.279 µM) | ≤ 0.12 | 0.12 (≈ 0.279 µM) | 0.25 (≈ 0.582 µM) | ≤ 0.12 | 0.12 (≈ 0.279 µM) | ≤ 0.12 | 0.12 (≈ 0.279 µM) | 4 (≈ 9.31 µM) | 4 (≈ 9.31 µM) | 4 (≈ 9.31 µM) | c1ccc(-c2ccc(Nc3ccc(-c4cc5ccc(C6=NCCN6)cc5[nH]4)cc3)cc2)nc1 [SKI-12] | 10 | 12 | MIC ([1]; Table 3, starting at 4 μg/ml, read-out: MIC S. aureus ATCC 29213): 1 µg/mL (≈ 2.33 µM); MIC S. aureus ATCC 33591 ([2]; Table 3, starting at 4 μg/ml): 1 µg/mL (≈ 2.33 µM); MIC S. aureus BAA-39 (S. aureus BAA-39 (MDR); Table 3, starting at 4 μg/ml): 1 µg/mL (≈ 2.33 µM); MIC ([3]; ATCC6301, Table 3, starting at 4 μg/ml, read-out: MIC S. pneumoniae ATCC 6301): 0.12 µg/mL (≈ 0.279 µM); MIC ([4]; Table 3, starting at 4 μg/ml, read-out: MIC S. pneumoniae ATCC 700674): 0.12 µg/mL (≈ 0.279 µM); MIC ([5]; Enterococcus faecalis, Table 3, starting at 4 μg/ml, read-out: MIC E. faecalis ATCC 29212): 0.25 µg/mL (≈ 0.582 µM); MIC ([6]; Enterococcus faecium, Table 3, starting at 4 μg/ml, read-out: MIC E. faecium ATCC 700221): 0.12 µg/mL (≈ 0.279 µM); MIC (E. faecium CT-26; CT26, Table 3, starting at 4 μg/ml, read-out: MIC E. faecium CT-26): 0.12 µg/mL (≈ 0.279 µM); MIC (E. coli ECM 1694; ECM1694, Table 3, starting at 4 μg/ml, read-out: MIC E. coli ECM 1694): 4 µg/mL (≈ 9.31 µM); MIC (E. coli ATCC 25922; [25]): 4 µg/mL (≈ 9.31 µM); MIC (K. pneumoniae ATCC 13883; [26]): 8 µg/mL (≈ 18.6 µM); MIC (K. pneumoniae ATCC 13883; [27]): 8 µg/mL (≈ 18.6 µM); MIC (K. pneumoniae ATCC 51503; [28]): 8 µg/mL (≈ 18.6 µM); MIC (K. pneumoniae ATCC 51503; [29]): 8 µg/mL (≈ 18.6 µM); MIC (P. aeruginosa ATCC 9027; [30]): 32 µg/mL (≈ 74.5 µM); MIC (P. aeruginosa ATCC 9027; [31]): 32 µg/mL (≈ 74.5 µM); MIC (C. albicans ATCC 14053): 8 µg/mL (≈ 18.6 µM)
